Laboratory results as given in patent US8710038B2, “Pyrazole kinase modulators and methods of use” (Exelixis, Inc., priority 2004, dated 2014).

Tests used:
EGFR = EGFR (Homo sapiens, UniProt P00533); assay: EGFR kinase inhibition assay; assay type: biochemical
Description: (§1) Kinase activity and compound inhibition are investigated using one or more of the three assay formats described below. The ATP concentrations for each assay are selected to be close to the Michaelis-Menten constant (KM) for each individual kinase. Dose-response experiments are performed at 10 different inhibitor concentrations in a 384-well plate format. The data are fitted to four-parameter equation (2) below; where Y is the observed signal, X is the inhibitor concentration, Min is the background signal in the absence of enzyme (0% enzyme activity), Max is the signal in the absence of inhibitor (100% enzyme activity), IC50 is the inhibitor concentration at 50% enzyme inhibition and H represents the empirical Hill's slope to measure the cooperativity. Typically H is close to unity. Y=Min+(Max−Min)/(1+(X/IC50)^H) Equation (2) ^33P Phosphoryl Transfer Assay: […]
(§2) Greiner 384-well white, clear bottom, high binding plates are coated with 2 μg/well of protein or peptide substrate in a 50 μL volume overnight at ambient temperature. The coating buffer typically contains 40 μg/mL substrate, 22.5 mM Na2CO3, 27.5 mM NaHCO3, 150 mM NaCl and 3 mM NaN3. The coating solution is aspirated and the plates are washed once with 50 μL of assay buffer and padded dry. Subsequently compounds and enzymes are mixed with γ^33P-ATP (3.3 μCi/nmol) in a total volume of 20 uL in suitable assay buffers. The mixture is incubated at ambient temperature for 1.5-2.5 hrs and terminated by aspiration using a Molecular Devices EMBLA 96-head plate washer. The plates are subsequently washed 6-12 times with PBST or TBS buffer. Scintillation fluid (50 μl/well) is then added, the plates are sealed and activity assessed by liquid scintillation spectrometry using a Perkin Elmer MicroBeta TriLux.
(§3) In the LCCA assays, kinase activity is measured as the percent ATP consumed following the kinase reaction using luciferase-luciferin-coupled chemiluminescence. Greiner 384-well white, clear bottom, medium-binding plates are used for LCCA. Briefly, the kinase reaction is initiated by mixing compounds, ATP and kinase in a 20 uL volume. The mixture is incubated at ambient temperature for 2-4 hrs. At the end of the kinase reaction, a 20 uL luciferase-luciferin mix is added and the chemiluminescent signal is read using a Wallac Victor^2 reader. The luciferase-luciferin mix consists of 50 mM HEPES, pH 7.8, 8.5 ug/mL oxalic acid (pH 7.8), 5 (or 50) mM DTT, 0.4% Triton X-100, 0.25 mg/mL coenzyme A, 63 uM AMP, 28 ug/mL luciferin and 40,000 units of light/mL luciferase. For the LCCA assays, total ATP consumption has been standardized to 25-45% and the IC50 values correlates well with those determined by radiometric assays.
(§4) AlphaScreen technology is a proximity assay which utilizes the increase in fluorescent signal occurring when donor and acceptor beads are close in proximity. Biotinylated poly(Glu,Tyr) 4:1 is used as the kinase substrate, in conjunction with streptavidin-coated donor beads and anti-phosphortyrosine antibody PY100-coated acceptor beads. Upon phosphorylation, the peptide substrate can bind to both donor and acceptor beads giving rise to an increase in fluorescence. Compounds, ATP, biotinylated poly(Glu, Tyr) and kinases are mixed in a volume of 20 uL for 1 hr at ambient temperature using Greiner 384-well white clear bottom medium binding plates. Following incubation a 10 uL solution containing […] AlphaScreen beads, 75 mM Hepes, pH 7.4, 300 mM NaCl, 120 mM EDTA, 0.3% BSA and 0.03% Tween-20 is added to each well. After 2-16 hr incubation of the beads, plates are read in a Perkin Elmer AlphaQuest reader. The IC50 values correlates well with those of radiometric assays.

c-Kit = c-Kit (Homo sapiens, UniProt P10721); assay: c-Kit biochemical assay (AlphaScreen)
c-Kit, sequence (P10721 26-976): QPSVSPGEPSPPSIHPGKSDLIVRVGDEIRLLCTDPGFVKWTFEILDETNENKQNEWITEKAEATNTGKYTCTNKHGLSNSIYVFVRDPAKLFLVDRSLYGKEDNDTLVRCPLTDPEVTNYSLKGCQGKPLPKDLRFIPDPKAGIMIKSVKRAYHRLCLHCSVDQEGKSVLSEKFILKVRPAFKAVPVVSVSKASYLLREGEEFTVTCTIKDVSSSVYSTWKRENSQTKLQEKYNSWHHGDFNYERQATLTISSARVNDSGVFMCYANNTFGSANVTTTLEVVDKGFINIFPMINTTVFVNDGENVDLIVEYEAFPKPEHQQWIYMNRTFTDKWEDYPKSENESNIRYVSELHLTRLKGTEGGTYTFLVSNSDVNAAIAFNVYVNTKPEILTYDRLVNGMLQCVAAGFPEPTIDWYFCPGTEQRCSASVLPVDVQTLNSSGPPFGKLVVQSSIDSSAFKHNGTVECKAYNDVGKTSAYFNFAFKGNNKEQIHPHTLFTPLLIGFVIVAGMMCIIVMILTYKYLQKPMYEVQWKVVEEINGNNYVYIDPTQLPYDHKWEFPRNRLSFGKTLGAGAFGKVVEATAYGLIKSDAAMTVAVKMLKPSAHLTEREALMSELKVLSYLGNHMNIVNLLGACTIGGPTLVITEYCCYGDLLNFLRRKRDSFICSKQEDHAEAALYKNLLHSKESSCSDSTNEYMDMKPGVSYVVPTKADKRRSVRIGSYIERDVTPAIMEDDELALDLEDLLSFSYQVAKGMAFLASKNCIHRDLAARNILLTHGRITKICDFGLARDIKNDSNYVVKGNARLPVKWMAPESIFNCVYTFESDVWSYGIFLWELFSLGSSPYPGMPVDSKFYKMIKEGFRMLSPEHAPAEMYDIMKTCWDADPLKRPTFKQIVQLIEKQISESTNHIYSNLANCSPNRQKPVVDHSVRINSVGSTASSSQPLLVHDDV
How it was run: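 Kinase, compound, ATP and biotinylated poly(Glu,Tyr) 4:1 reacted 1 hr at ambient temperature; quenched with EDTA buffer (pH 7.4) containing streptavidin donor and anti-phosphotyrosine PY100 acceptor beads, incubated 16 hr, then AlphaScreen signal read to give IC50.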

flt-3 = molecular target: T1, flt-3 (Homo sapiens, UniProt P36888); assay: flt-3 Luciferase-Coupled Chemiluminescent Kinase assay (LCCA); assay type: biochemical
T1 construct: baculovirus expressed human Flt-3 kinase domain R571-S993
T1 sequence (P36888 571-993): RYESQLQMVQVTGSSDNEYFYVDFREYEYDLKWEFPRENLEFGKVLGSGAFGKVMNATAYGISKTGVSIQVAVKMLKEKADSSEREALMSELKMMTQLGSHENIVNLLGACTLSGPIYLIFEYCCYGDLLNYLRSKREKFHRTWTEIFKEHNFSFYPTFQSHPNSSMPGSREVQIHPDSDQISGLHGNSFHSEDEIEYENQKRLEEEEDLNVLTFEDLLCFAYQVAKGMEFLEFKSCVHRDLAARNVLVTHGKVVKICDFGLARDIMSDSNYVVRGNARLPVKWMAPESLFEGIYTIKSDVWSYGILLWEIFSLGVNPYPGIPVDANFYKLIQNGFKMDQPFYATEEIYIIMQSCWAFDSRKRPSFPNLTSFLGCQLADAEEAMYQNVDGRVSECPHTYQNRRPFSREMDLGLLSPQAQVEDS
How it was run: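 Baculovirus-expressed human Flt-3 kinase domain (R571-S993, 5 nM) was reacted with 5 μM ATP and 3 μM poly-EY in Tris pH 7.5 buffer with MgCl2/MnCl2 for 3 h at ambient temperature. Remaining ATP was read by luciferase-luciferin chemiluminescence, with ATP consumption standardized to 25-45%, for IC50.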

EphB4 = molecular target: T2, EphB4 (Homo sapiens, UniProt P54760); assay: EphB4 kinase inhibition assay; assay type: biochemical
T2 sequence (P54760 16-987): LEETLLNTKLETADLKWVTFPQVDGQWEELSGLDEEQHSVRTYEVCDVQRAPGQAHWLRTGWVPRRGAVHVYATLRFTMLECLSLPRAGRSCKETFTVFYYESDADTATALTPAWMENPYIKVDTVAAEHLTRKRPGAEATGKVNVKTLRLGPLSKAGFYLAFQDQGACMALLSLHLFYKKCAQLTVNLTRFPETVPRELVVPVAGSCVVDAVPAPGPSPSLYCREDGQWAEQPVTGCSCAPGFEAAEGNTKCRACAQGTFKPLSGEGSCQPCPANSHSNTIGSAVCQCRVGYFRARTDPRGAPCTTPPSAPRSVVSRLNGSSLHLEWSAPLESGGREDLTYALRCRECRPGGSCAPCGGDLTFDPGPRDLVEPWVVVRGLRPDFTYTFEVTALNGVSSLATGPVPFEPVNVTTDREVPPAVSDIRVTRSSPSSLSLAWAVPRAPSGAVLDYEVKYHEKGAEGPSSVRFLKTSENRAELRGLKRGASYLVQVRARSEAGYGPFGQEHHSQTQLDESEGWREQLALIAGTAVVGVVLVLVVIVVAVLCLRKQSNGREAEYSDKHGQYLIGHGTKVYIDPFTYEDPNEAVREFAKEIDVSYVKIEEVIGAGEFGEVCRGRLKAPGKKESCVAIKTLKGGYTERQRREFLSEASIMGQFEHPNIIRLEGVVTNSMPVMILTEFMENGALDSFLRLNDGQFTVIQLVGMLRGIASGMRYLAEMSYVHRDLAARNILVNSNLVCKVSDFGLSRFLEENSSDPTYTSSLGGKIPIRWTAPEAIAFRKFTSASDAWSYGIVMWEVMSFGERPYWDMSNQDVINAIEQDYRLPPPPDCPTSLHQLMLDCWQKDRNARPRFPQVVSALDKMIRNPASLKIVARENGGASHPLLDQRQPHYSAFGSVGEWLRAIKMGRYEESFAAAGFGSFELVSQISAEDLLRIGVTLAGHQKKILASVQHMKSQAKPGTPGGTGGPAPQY
Description: as §1, §2, §3, §4

EGFR, sequence (P00533 25-1210, species assumed): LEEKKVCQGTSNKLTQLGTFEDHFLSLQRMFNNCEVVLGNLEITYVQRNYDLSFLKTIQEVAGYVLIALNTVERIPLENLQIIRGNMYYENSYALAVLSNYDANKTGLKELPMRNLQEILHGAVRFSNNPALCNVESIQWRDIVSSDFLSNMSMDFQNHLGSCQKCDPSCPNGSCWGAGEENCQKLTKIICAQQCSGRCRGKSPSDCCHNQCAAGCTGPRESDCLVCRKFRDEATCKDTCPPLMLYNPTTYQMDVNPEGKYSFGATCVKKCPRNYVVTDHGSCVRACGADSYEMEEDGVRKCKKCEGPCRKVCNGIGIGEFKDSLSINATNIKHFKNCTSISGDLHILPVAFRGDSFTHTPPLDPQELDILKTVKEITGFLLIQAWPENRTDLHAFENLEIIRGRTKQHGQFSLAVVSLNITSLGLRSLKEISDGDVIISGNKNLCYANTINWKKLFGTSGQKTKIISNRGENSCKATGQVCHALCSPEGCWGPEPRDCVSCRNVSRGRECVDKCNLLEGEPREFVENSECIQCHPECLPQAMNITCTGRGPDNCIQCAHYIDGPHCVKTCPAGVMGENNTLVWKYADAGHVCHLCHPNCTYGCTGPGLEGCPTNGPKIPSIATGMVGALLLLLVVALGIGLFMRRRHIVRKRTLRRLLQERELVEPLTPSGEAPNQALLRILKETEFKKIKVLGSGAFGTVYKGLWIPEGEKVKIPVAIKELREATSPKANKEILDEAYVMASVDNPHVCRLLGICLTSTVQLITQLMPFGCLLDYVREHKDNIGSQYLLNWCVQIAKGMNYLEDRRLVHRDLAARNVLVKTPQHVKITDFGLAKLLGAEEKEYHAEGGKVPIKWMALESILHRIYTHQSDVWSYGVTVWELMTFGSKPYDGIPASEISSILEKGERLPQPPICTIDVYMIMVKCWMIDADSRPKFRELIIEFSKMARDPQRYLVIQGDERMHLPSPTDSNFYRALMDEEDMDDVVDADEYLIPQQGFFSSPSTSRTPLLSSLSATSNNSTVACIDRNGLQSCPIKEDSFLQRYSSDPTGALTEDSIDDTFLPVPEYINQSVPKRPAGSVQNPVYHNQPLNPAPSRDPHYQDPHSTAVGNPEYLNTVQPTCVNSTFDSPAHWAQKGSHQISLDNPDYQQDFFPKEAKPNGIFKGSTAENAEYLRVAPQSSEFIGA

Row | Structure (SMILES) | IC50 (EGFR) [nM] | IC50 (c-Kit) [nM] | IC50 (flt-3) [nM] | IC50 (EphB4) [nM]
1 | CN1CCN(c2ccc3[nH]c(-c4cc(-c5ccc(NC(=O)Nc6ccc(F)cc6)cc5)[nH]n4)nc3c2)CC1 [Entry 23, N-(4-fluorophenyl)-N′-(4-{3-[5-(4-methylpiperazin-1-yl)-1H-benzimidazol-2-yl]-1H-pyrazol-5-yl}phenyl)urea] | > 5000 | < 50 | < 50 | > 5000
2 | CN1CCN(c2ccc3[nH]c(-c4cc(-c5ccc(NC(=O)Nc6ccc(F)c(F)c6)cc5)[nH]n4)nc3c2)CC1 [Entry 25, N-(3,4-difluorophenyl)-N′-(4-{3-[5-(4-methylpiperazin-1-yl)-1H-benzimidazol-2-yl]-1H-pyrazol-5-yl}phenyl)urea] | > 5000 | < 50 | < 50 | > 5000
3 | CCN1CCN(c2ccc3nc(-c4cc(-c5ccc(NC(=O)Nc6ccc(F)cc6F)cc5)[nH]n4)[nH]c3c2)CC1 [Entry 29, N-(2,4-difluorophenyl)-N′-(4-{3-[6-(4-ethylpiperazin-1-yl)-1H-benzimidazol-2-yl]-1H-pyrazol-5-yl}phenyl)urea] | > 5000 | < 50 | < 50 | > 5000
4 | O=C(Nc1ccc(-c2cc(-c3nc4ccccc4[nH]3)n[nH]2)cc1)Nc1ccc(Cl)c(C(F)(F)F)c1 [Entry 30, N-{4-[3-(1H-benzimidazol-2-yl)-1H-pyrazol-5-yl]phenyl}-N′-[4-chloro-3-(trifluoromethyl)phenyl]urea] | > 5000 | < 50 | < 50 | > 5000
5 | O=C(Nc1ccc(-c2cc(-c3nc4ccccc4[nH]3)n[nH]2)cc1)Nc1cc(C(F)(F)F)ccc1F [Entry 31, N-{4-[3-(1H-benzimidazol-2-yl)-1H-pyrazol-5-yl]phenyl}-N′-[2-fluoro-5-(trifluoromethyl)phenyl]urea] | > 5000 | < 50 | < 50 | > 5000
6 | CN1CCN(c2ccc3[nH]c(-c4cc(-c5ccc(NC(=O)Nc6ccc(F)cc6F)cc5)[nH]n4)nc3c2)CC1 [Entry 32, N-(2,4-difluorophenyl)-N′-(4-{3-[5-(4-methylpiperazin-1-yl)-1H-benzimidazol-2-yl]-1H-pyrazol-5-yl}phenyl)urea] | > 5000 | < 50 | < 50 | > 5000

Continued, values first:

Row | IC50 (EGFR) [nM] | IC50 (c-Kit) [nM] | IC50 (flt-3) [nM] | IC50 (EphB4) [nM] | Structure (SMILES)
7 | > 5000 | < 50 | < 50 | 500 to 5000 | CN1CCN(c2ccc3[nH]c(-c4cc(-c5ccc(NC(=O)Nc6cc(C(F)(F)F)cc(C(F)(F)F)c6)cc5)[nH]n4)nc3c2)CC1 [Entry 34, N-[3,5-bis(trifluoromethyl)phenyl]-N′-(4-{3-[5-(4-methylpiperazin-1-yl)-1H-benzimidazol-2-yl]-1H-pyrazol-5-yl}phenyl)urea]
8 | > 5000 | < 50 | < 50 | > 5000 | CN1CCN(c2ccc3[nH]c(-c4cc(-c5ccc(NC(=O)Nc6ccccc6F)cc5)[nH]n4)nc3c2)CC1 [Entry 35, N-(2-fluorophenyl)-N′-(4-{3-[5-(4-methylpiperazin-1-yl)-1H-benzimidazol-2-yl]-1H-pyrazol-5-yl}phenyl)urea]
9 | > 5000 | < 50 | < 50 | > 5000 | Oc1ccc(/C=C/c2cc(/C=C/c3ccccc3)[nH]n2)cc1 [Entry 36, 4-((E)-2-{5-[(E)-2-phenylethenyl]-1H-pyrazol-3-yl}ethenyl)phenol]
10 | > 5000 | < 50 | < 50 | 500 to 5000 | COc1cc(/C=C/c2cc(/C=C/c3ccccc3)[nH]n2)ccc1O [Entry 37, 2-(methyloxy)-4-((E)-2-{5-[(E)-2-phenylethenyl]-1H-pyrazol-3-yl}ethenyl)phenol]
11 | > 5000 | 50 to 500 | < 50 | > 5000 | CN1CCN(c2ccc3[nH]c(-c4cc(-c5ccc(NC(=O)Nc6ccccc6)cc5)[nH]n4)nc3c2)CC1 [Entry 39, N-(4-{3-[5-(4-methylpiperazin-1-yl)-1H-benzimidazol-2-yl]-1H-pyrazol-5-yl}phenyl)-N′-phenylurea]
12 | > 5000 | 50 to 500 | < 50 | > 5000 | CN1CCN(c2ccc(-c3cc(-c4ccc(NC(=O)Nc5ccc(F)cc5F)cc4)[nH]n3)cc2)CC1 [Entry 41, N-(2,4-difluorophenyl)-N′-(4-{3-[4-(4-methylpiperazin-1-yl)phenyl]-1H-pyrazol-5-yl}phenyl)urea]
13 | > 5000 | 50 to 500 | < 50 | > 5000 | CN1CCN(c2ccc(-c3cc(-c4ccc(NC(=O)Nc5ccc6c(c5)OCCO6)cc4)n[nH]3)cc2)CC1 [Entry 42, N-(2,3-dihydro-1,4-benzodioxin-6-yl)-N′-(4-{5-[4-(4-methylpiperazin-1-yl)phenyl]-1H-pyrazol-3-yl}phenyl)urea]
